Measured values from patent US8217042B2, “Pyridopyrazines and their use as modulators of kinases” (Zentaris GmbH, priority 2005, dated 2012).

Columns and labels:
Hct116 = assay: XTT assay, anti-proliferative action, Hct116; assay type: cell-based; conditions: Homo sapiens, HCT-116, 45 h, Hct116 cells, 45 h incubation
Experimental: (§1) The principle of this test is based on the intracellular reduction of the tetrazolium dye XTT (sodium 3′-[1-(phenylaminocarbonyl)-3,4-tetrazolium]bis(4-methoxy-6-nitro)benzenenesulphonic acid, Sigma) to a formazan dye by mitochondrial dehydrogenases.
(§2) The dye is formed only by metabolically active cells; its photometrically measurable intensity is a quantitative indicator for the presence of living cells. The reduction in the dye formation as a result of incubation of the cells with substances serves as a parameter for the anti-proliferative action.
(§3) The tumour cell lines (ATCC) were seeded in 96-well microtitre plates in a defined cell count (5000 cells/well for BxPC3 and Hct116; 10 000 cells/well for MDA MB468), and then incubated overnight in an incubator at 37° C., 5% CO2 and 95% air humidity. The test substances were made up as stock solutions (10 mM) in DMSO. […] The cell plates were then incubated for 45 h in an incubator at 37° C., 5% CO2 and 95% air humidity.
(§4) For the detection reaction, the XTT substrate was admixed with PMS (N-methyldibenzopyrazine methylsulphate, Sigma) and added to the cells, so as to result in a final concentration of 325 μg of XTT/ml and 2.5 μg PMS/ml. The mixture was then incubated for 3 h at 37° C., 95% air humidity. Subsequently the formazan salt formed by cellular dehydrogenases was quantified at an absorption of 490 nm.
(§5) The evaluation of the % inhibition values was done by means of the following formula from the values for the optical densities measured in each case at 490 nm:
(§6) The controls were determined 8 times each, the substance samples twice each. 0% control contained no cells; the 100% control contained no test substance. The EC50 values were determined with GraphPadPrism.

p38alpha = target: T1, p38alpha (Homo sapiens, UniProt Q16539); assay: Cell-free kinase assay (ALPHA technology), p38alpha; assay type: biochemical; conditions: at 10 μM or 100 μM* ATP, recombinant human kinase
T1 construct: in some cases as full-length kinases, in some cases as truncated fragments
Experimental: The inhibitory effect of the inventive compounds was tested on various human serine/threonine kinases, tyrosine kinases and lipid kinases in enzymatic assays. Recombinant human kinases, for example Erk2, PI3Kalpha, -beta, -gamma, -delta, p38alpha, p38gamma, Jnk1, Jnk2 and others were used, in some cases as full-length kinases, in some cases as truncated fragments—but at least consisting of the functional kinase domains. The commercial kinase proteins (Proqinase, Upstate) were used as recombinant fusion proteins with GST (glutathione S-transferase) tag or His tag. Depending on the substrate type, the different kinase reactions were quantified by means of suitable ALPHA™ beads (PerkinElmer). […]
The fluorescence was detected the next morning in a Fusion™ alpha instrument (Perkin Elmer).
The calculation of % inhibition values per substance concentration was done by means of the following formula from the raw data determined in the Fusion™ alpha:
The controls were each determined 8 times, the substance samples each twice. 0% control contained neither any ATP nor any substrate; the 100% control contained no test substance. The IC50 values were determined with GraphPadPrism.

MDA-MB468 = assay: XTT assay, anti-proliferative action, MDA-MB468; assay type: cell-based; conditions: Homo sapiens, MDA-MB-468, 45 h, MDA-MB468 cells, 45 h incubation
Experimental: as §1, §2, §3, §4, §5, §6

Erk →pRsk = assay: Cellular substrate phosphorylation (Western blotting), Erk substrate Rsk1; assay type: cell-based; conditions: 5 h, tumour cell line
Experimental: This method enables a statement of whether the kinase modulator investigated achieves the desired effect in a cellular context too, i.e., in this case, a substrate protein downstream of the target kinase is examined for its phosphorylation status. To this end, the cells incubated with substance are lysed and the overall protein is separated on a reducing polyacrylamide gel. Subsequently, the proteins are transferred by means of Western blotting to a PVDF membrane and the substrate bands sought are made visible with specific antibodies and a suitable detection method. The substrate proteins downstream of the target kinases are detected simultaneously with an anti-phospho antibody which is specific in each case and simultaneously a total antibody which recognizes the substrate total protein. The duplex technology of the ODYSSEY imager (LiCOR) enables this simultaneous measurement. The intensity of the total substrate bands is employed to normalize and quantify the phosphorylation inhibition or activation.
Suitable tumour cell lines (e.g. BxPC3, Hct116 or MDA MB468) were seeded into 6-well microtitre plates in a defined cell count (e.g. 350 000 cells/well for BxPC3 and Hct116) in the particular standard complete media and then incubated overnight in an incubator at 37° C., 5% CO2 and 95% air humidity. The cells were then incubated further for a further 24 h under reduced-serum conditions, i.e. in the particular medium except at only 0.25% serum. The test substances were made up as stock solutions (10 mM) in DMSO and incubated with the cells at final concentrations of 5, 15.8 and 50 μM for 5 h. This was followed by cell lysis in 25 mM Tris, 150 mM NaCl, 10 mM sodium pyrophosphate, 2 mM EGTA, 25 mM beta-glycerophosphate, 25 mM NaF, 10% glycerol, 0.75% NP-40, 100 μM NaVO4 buffer. After protein quantification by means of BCA (bicinchonic acid protein assay kit, Sigma) assay, amounts of protein of about 20 μg per track were separated on a Lammli polyacrylamide gel and then transferred onto a PVDF membrane (Millipore) by means of semi-dry Western blotting at 0.8 mA/cm^2 for 1 h. This was followed by prehybridization of the membrane for 1 hour in I-block reagent (Applied Biosystems) and overnight incubation with the specific antibodies. To determine the Erk and PI3K inhibition, the next substrates Rsk1 downstream were detected with the total antibody (Rsk #sc-231g C-21, Santa Cruz) and the phospho antibody (Phospho-p90RSK (S380) #9341, NEB Cell Signalling) and Akt with the total antibody (Akt1 #sc-20, Santa Cruz) and the phospho antibody (Phospho-Akt (Ser 473) #9271, NEB Cell Signaling). After the membrane had been washed, the secondary antibodies were incubated with anti-rabbit IR Dye 800 (#611-732-127, Rockland) for the phospho antibody and anti-goat Alexa Fluor 680 (#A-21081, […]) for the total protein antibody. After incubation for 30 min at room temperature in the dark, the hybridization of the detection antibody was detected on the membrane by scanning in an ODYSSEY imager (LiCOR).

T1 sequence (Q16539 whole entry, the tested form may be a part): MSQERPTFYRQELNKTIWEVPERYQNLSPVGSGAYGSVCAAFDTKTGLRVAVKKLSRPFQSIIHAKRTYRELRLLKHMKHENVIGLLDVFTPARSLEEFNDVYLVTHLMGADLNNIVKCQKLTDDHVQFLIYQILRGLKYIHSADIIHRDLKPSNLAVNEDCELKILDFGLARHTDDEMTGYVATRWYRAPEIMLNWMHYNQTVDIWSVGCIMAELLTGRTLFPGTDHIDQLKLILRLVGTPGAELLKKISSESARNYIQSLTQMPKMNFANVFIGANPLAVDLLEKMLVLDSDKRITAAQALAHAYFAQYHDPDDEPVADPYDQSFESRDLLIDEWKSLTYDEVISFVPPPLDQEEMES

EC50 (Hct116): ~20 µM
IC50 (p38alpha): 4 µM
melting point: 247 to 250 °C
EC50 (MDA-MB468): 16 µM
SMILES: CCNC(=O)Nc1ccc2ncc(Nc3ccc(C)c(NS(C)(=O)=O)c3)nc2n1 [Compound 49, N-{5-[6-(3-Ethylurea)pyrido[2,3-b]pyrazin-3-ylamino]-2-methylphenyl}methanesulphonamide]
inhibition at 50 µM (Erk →pRsk): 0%
